Article PMC5694373 (European journal of pharmaceutical sciences : official …, 2017)
Read-outs that look alike come from different tables or passages of the source.

Legend:
[1] = tested on: wild-type MX/09 influenza; format: cell-based; settings: oseltamivir 75 mg Q12 and/or zanamivir 600 mg Q12 exposures, alone or in combination, throughout the study
[2] = cited from earlier work; for human half-life: reported human half-life simulated in the HFIM

Row | Molecule | effect on viral replication relative to no-treatment control [1] | human half-life ([2]; ref Doucette and Aoki, 2001) [h] | oral bioavailability ([2]; ref GlaxoSmithKline, 2009) | human half-life ([2]; ref GlaxoSmithKline, 2009) [h]
1 | Oseltamivir carboxylate | suppressed the replication of MX/09 | 8 |  | 
2 | CC(=O)N[C@H]1[C@H]([C@H](O)[C@H](O)CO)OC(C(=O)O)=C[C@@H]1N=C(N)N [Zanamivir, zanamivir] |  |  | poor oral bioavailability | 2.5
